Measured values: ChEMBL document CHEMBL3885861, “Open TG-GATES”

Species: Rattus norvegicus
Experiment: Open TG-GATES - Regimen: Single
Format: toxicity, organism-based, Sprague-Dawley
Parameters: regimen Single, gender Male, age 6 weeks
Conditions: in vivo, po, 2000 mg/kg, route gavage, dose level High; for APTT / Bas / Eos / Fbg / Hb / Ht / Lym / MCH / MCHC / MCV / Mono / Neu / PT / Plat / RBC / Ret / WBC: tissue Blood; for KIDNEY_L / KIDNEY_R / KIDNEY_TOTAL: tissue Kidney; for LIVER: tissue Liver; for A/G / ALP / ALT / AST / BUN / CRE / Ca / Cl / DBIL / GLC / IP / K / LDH / Na / PL / RALB / TBIL / TC / TG / TP / gamma-GTP: tissue Plasma

SMILES: CCN1CCCC1CNC(=O)c1cc(S(N)(=O)=O)ccc1OC (configuration not stated) [SULPIRIDE]
- TERMINAL_BW (3 h): 201.8 g
- APTT (3 h): 18.6 s
- Bas (3 h): 0%
- Eos (3 h): 0.6%
- Fbg (3 h): 244.2 mg/dL
- Hb (3 h): 12.7 g/dL
- Ht (3 h): 39.6%
- Lym (3 h): 82%
- MCH (3 h): 21 pg
- MCHC (3 h): 32.2%
- MCV (3 h): 65.4 fL
- Mono (3 h): 3.2%
- Neu (3 h): 13%
- PT (3 h): 13.9 s
- Plat (3 h): 117.9 x10_4/uL
- RBC (3 h): 606.4 x10_4/ul
- Ret (3 h): 7.7%
- WBC (3 h): 82.3 x10_2/uL
- KIDNEY_L (3 h): 0.9 g
- KIDNEY_R (3 h): 0.9 g
- KIDNEY_TOTAL (3 h): 1.8 g
- LIVER (3 h): 9 g
- A/G (3 h): 0.9
- ALP (3 h): 1446.6 IU/L
- ALT (3 h): 42 IU/L
- AST (3 h): 74.6 IU/L
- BUN (3 h): 9.4 mg/dL
- CRE (3 h): 0.2 mg/dL
- Ca (3 h): 10.6 mg/dL
- Cl (3 h): 105.4 meq/L
- DBIL (3 h): 0.004 mg/dL
- GLC (3 h): 174 mg/dL
- IP (3 h): 8.8 mg/dL
- K (3 h): 3.9 meq/L
- LDH (3 h): 90.2 IU/L
- Na (3 h): 143.4 meq/L
- PL (3 h): 119.6 mg/dL
- RALB (3 h): 2.3 g/dL
- TBIL (3 h): 0.068 mg/dL
- TC (3 h): 57.6 mg/dL
- TG (3 h): 55 mg/dL
- TP (3 h): 4.9 g/dL
- gamma-GTP (3 h): 1.2 IU/L
- TERMINAL_BW (6 h): 199.5 g
- APTT (6 h): 17 s
- Bas (6 h): 0%
- Eos (6 h): 0.8%
- Fbg (6 h): 273 mg/dL
- Hb (6 h): 13 g/dL
- Ht (6 h): 40.9%
- Lym (6 h): 76.6%
- MCH (6 h): 20.9 pg
- MCHC (6 h): 31.9%
- MCV (6 h): 65.6 fL
- Mono (6 h): 2.6%
- Neu (6 h): 19%
- PT (6 h): 13.4 s
- Plat (6 h): 121.6 x10_4/uL
- RBC (6 h): 623.8 x10_4/ul
- Ret (6 h): 7.6%
- WBC (6 h): 63.1 x10_2/uL
- KIDNEY_L (6 h): 0.9 g
- KIDNEY_R (6 h): 0.9 g
- KIDNEY_TOTAL (6 h): 1.7 g
- LIVER (6 h): 8.1 g
- A/G (6 h): 0.9
- ALP (6 h): 1306.2 IU/L
- ALT (6 h): 39.6 IU/L
- AST (6 h): 74.2 IU/L
- BUN (6 h): 7.2 mg/dL
- CRE (6 h): 0.1 mg/dL
- Ca (6 h): 10.5 mg/dL
- Cl (6 h): 106.4 meq/L
- DBIL (6 h): 0 mg/dL
- GLC (6 h): 163.6 mg/dL
- IP (6 h): 9.1 mg/dL
- K (6 h): 4 meq/L
- LDH (6 h): 92 IU/L
- Na (6 h): 142.4 meq/L
- PL (6 h): 133.2 mg/dL
- RALB (6 h): 2.4 g/dL
- TBIL (6 h): 0.07 mg/dL
- TC (6 h): 72.2 mg/dL
- TG (6 h): 35.2 mg/dL
- TP (6 h): 5.2 g/dL
- gamma-GTP (6 h): 1 IU/L
- TERMINAL_BW (9 h): 199.2 g
- APTT (9 h): 19.7 s
- Bas (9 h): 0%
- Eos (9 h): 1%
- Fbg (9 h): 296.6 mg/dL
- Hb (9 h): 13.3 g/dL
- Ht (9 h): 41.7%
- Lym (9 h): 79.6%
- MCH (9 h): 20.1 pg
- MCHC (9 h): 32%
- MCV (9 h): 62.9 fL
- Mono (9 h): 2.2%
- Neu (9 h): 16.6%
- PT (9 h): 13.2 s
- Plat (9 h): 117.3 x10_4/uL
- RBC (9 h): 663.8 x10_4/ul
- Ret (9 h): 7.5%
- WBC (9 h): 63.8 x10_2/uL
- KIDNEY_L (9 h): 0.9 g
- KIDNEY_R (9 h): 0.9 g
- KIDNEY_TOTAL (9 h): 1.8 g
- LIVER (9 h): 7.5 g
- A/G (9 h): 0.9
- ALP (9 h): 1349.6 IU/L
- ALT (9 h): 30.8 IU/L
- AST (9 h): 67.4 IU/L
- BUN (9 h): 7.4 mg/dL
- CRE (9 h): 0.1 mg/dL
- Ca (9 h): 10.5 mg/dL
- Cl (9 h): 108.4 meq/L
- DBIL (9 h): 0.008 mg/dL
- GLC (9 h): 165.6 mg/dL
- IP (9 h): 10.1 mg/dL
- K (9 h): 4.3 meq/L
- LDH (9 h): 88.2 IU/L
- Na (9 h): 142 meq/L
- PL (9 h): 133.8 mg/dL
- RALB (9 h): 2.5 g/dL
- TBIL (9 h): 0.076 mg/dL
- TC (9 h): 73 mg/dL
- TG (9 h): 29 mg/dL
- TP (9 h): 5.3 g/dL
- gamma-GTP (9 h): 1.6 IU/L
- TERMINAL_BW (24 h): 209.1 g
- APTT (24 h): 16.6 s
- Bas (24 h): 0.2%
- Eos (24 h): 0.8%
- Fbg (24 h): 301.4 mg/dL
- Hb (24 h): 13.8 g/dL
- Ht (24 h): 42.8%
- Lym (24 h): 79.2%
- MCH (24 h): 20.4 pg
- MCHC (24 h): 32.3%
- MCV (24 h): 63.2 fL
- Mono (24 h): 3.6%
- Neu (24 h): 15.4%
- PT (24 h): 12.7 s
- Plat (24 h): 120.6 x10_4/uL
- RBC (24 h): 678.6 x10_4/ul
- Ret (24 h): 7%
- WBC (24 h): 97.3 x10_2/uL
- KIDNEY_L (24 h): 0.9 g
- KIDNEY_R (24 h): 0.9 g
- KIDNEY_TOTAL (24 h): 1.9 g
- LIVER (24 h): 9 g
- A/G (24 h): 0.9
- ALP (24 h): 1595.2 IU/L
- ALT (24 h): 40.6 IU/L
- AST (24 h): 64.8 IU/L
- BUN (24 h): 17.4 mg/dL
- CRE (24 h): 0.2 mg/dL
- Ca (24 h): 11.3 mg/dL
- Cl (24 h): 103.8 meq/L
- DBIL (24 h): 0.012 mg/dL
- GLC (24 h): 179.8 mg/dL
- IP (24 h): 9.3 mg/dL
- K (24 h): 4.8 meq/L
- LDH (24 h): 101 IU/L
- Na (24 h): 141.4 meq/L
- PL (24 h): 149.8 mg/dL
- RALB (24 h): 2.7 g/dL
- TBIL (24 h): 0.064 mg/dL
- TC (24 h): 86.2 mg/dL
- TG (24 h): 77 mg/dL
- TP (24 h): 5.7 g/dL
- gamma-GTP (24 h): 1 IU/L
